# Reference: patent US20150105252A1, “SUBSTITUTED PYRAZOLES AS HERBICIDES” (E I DU PONT DE NEMOURS AND COMPANY, priority 2013, published 2015)
# Experiments:
# bromegrass, downy = test: Test D preemergence; format: in vivo, Bromus tectorum; conditions: for Plant response rating, Bromegrass, Downy: Preemergence, scale 0 to 100
# Description: (§1) Seeds of plant species selected from bluegrass (annual bluegrass, Poa annua), blackgrass (Alopecurus myosuroides), canarygrass (littleseed canarygrass, Phalaris minor), chickweed (common chickweed, Stellaria media), galium (catchweed bedstraw, Galium aparine), bromegrass, downy (downy bromegrass, Bromus tectorum), field poppy (Papaver rhoeas), field violet (Viola arvensis), foxtail, green (green foxtail, Setaria viridis), deadnettle (henbit deadnettle, Lamium amplexicaule), ryegrass, Italian (Italian ryegrass, Lolium multiflorum), kochia (Kochia scoparia), lambsquarters (Chenopodium album), oilseed rape (Brassica napus), pigweed (redroot pigweed, Amaranthus retroflexus), chamomile (scentless chamomile, Matricaria inodora), speedwell (bird's-eye speedwell, Veronica persica), barley, spring (spring barley, Hordeum vulgare), wheat, spring (spring wheat, Triticum aestivum), buckwheat, wild (wild buckwheat, Polygonum convolvulus), mustard, wild (wild mustard, Sinapis arvensis), oat, wild (wild oat, Avena fatua), radish, wild (wild radish, Raphanus raphanistrum), windgrass (Apera spica-venti), Russian thistle (Salsola kali), barley, winter (winter barley, Hordeum vulgare), and wheat, winter (winter wheat, Triticum aestivum) were planted into a silt loam soil and treated preemergence with test chemicals formulated in a non-phytotoxic solvent mixture which included a surfactant.
# (§2) At the same time, these species were planted in pots containing Redi-Earth® planting medium (Scotts Company, 14111 Scottslawn Road, Marysville, Ohio 43041) comprising spaghnum peat moss, vermiculite, wetting agent and starter nutrients and treated with postemergence applications of the test chemicals formulated in the same manner. Plants ranged in height from 2 to 18 cm (1- to 4-leaf stage). Treated plants and controls were maintained in a controlled growth environment for 14 to 21 days after which time all species were compared to controls and visually evaluated. Plant response ratings, summarized in Table D, are based on a scale of 0 to 100 where 0 is no effect and 100 is complete control. A dash (-) response means no test result.
# foxtail, green = test: Test D preemergence; format: in vivo, Setaria viridis; conditions: for Plant response rating, Foxtail, Green: Preemergence, scale 0 to 100
# Description: as §1, §2
# deadnettle [1] = test: Test D preemergence; format: in vivo, Lamium amplexicaule; conditions: for Plant response rating, Deadnettle: Preemergence, scale 0 to 100
# Description: as §1, §2
# lambsquarters = test: Test D preemergence; format: in vivo, Chenopodium album; conditions: for Plant response rating, Lambsquarters: Preemergence, scale 0 to 100
# Description: as §1, §2
# pigweed [2] = test: Test D preemergence; format: in vivo, Amaranthus retroflexus; conditions: for Plant response rating, Pigweed: Preemergence, scale 0 to 100
# Description: as §1, §2
# chamomile = test: Test D preemergence; format: in vivo, Matricaria inodora; conditions: for Plant response rating, Chamomile: Preemergence, scale 0 to 100
# Description: as §1, §2
# barley, spring [3] = test: Test D preemergence; format: in vivo, Hordeum vulgare; conditions: for Plant response rating, Barley, Spring: Preemergence, scale 0 to 100
# Description: as §1, §2
# barley, winter [4] = test: Test D preemergence; format: in vivo, Hordeum vulgare; conditions: for Plant response rating, Barley, Winter: Preemergence, scale 0 to 100
# Description: as §1, §2
# wheat, spring = test: Test D preemergence; format: in vivo, Triticum aestivum; conditions: for Plant response rating, Wheat, Spring: Preemergence, scale 0 to 100
# Description: as §1, §2
# wheat, winter = test: Test D preemergence; format: in vivo, Triticum aestivum; conditions: for Plant response rating, Wheat, Winter: Preemergence, scale 0 to 100
# Description: as §1, §2
# radish, wild = test: Test D preemergence; format: in vivo, Raphanus raphanistrum; conditions: for Plant response rating, Radish, Wild: Preemergence, scale 0 to 100
# Description: as §1, §2
# canarygrass = test: Test D postemergence; format: in vivo, Phalaris minor; conditions: scale 0 to 100
# Description: as §1, §2
# field violet = test: Test D postemergence; format: in vivo, Viola arvensis; conditions: scale 0 to 100
# Description: as §1, §2
# deadnettle [5] = test: Test D postemergence; format: in vivo, Lamium amplexicaule; conditions: scale 0 to 100
# Description: as §1, §2
# pigweed [6] = test: Test D postemergence; format: in vivo, Amaranthus retroflexus; conditions: scale 0 to 100
# Description: as §1, §2
# barley, spring [7] = test: Test D postemergence; format: in vivo, Hordeum vulgare; conditions: scale 0 to 100
# Description: as §1, §2
# barley, winter [8] = test: Test D postemergence; format: in vivo, Hordeum vulgare; conditions: scale 0 to 100
# Description: as §1, §2
# buckwheat, wild = test: Test D postemergence; format: in vivo, Polygonum convolvulus; conditions: scale 0 to 100
# Description: as §1, §2
# mustard, wild = test: Test D postemergence; format: in vivo, Sinapis arvensis; conditions: scale 0 to 100
# Description: as §1, §2
# oat, wild = test: Test D postemergence; format: in vivo, Avena fatua; conditions: scale 0 to 100
# Description: as §1, §2
# [9] = 16 g ai/ha, taken as preemergence
smiles,measurement,setting,value
O=C(NC1CC1)c1cc(CCF)n(Cc2ccnc(C(F)(F)F)c2)n1 [Compound 176],"Plant response rating (scale 0 to 100), Bromegrass, Downy","bromegrass, downy; [9]",0
same,"Plant response rating, Bromegrass, Downy","bromegrass, downy; 31 g ai/ha",0
same,"Plant response rating, Bromegrass, Downy","bromegrass, downy; 62 g ai/ha",15
same,"Plant response rating, Bromegrass, Downy","bromegrass, downy; 125 g ai/ha",25
same,"Plant response rating (scale 0 to 100), Foxtail, Green","foxtail, green; [9]",0
same,"Plant response rating, Foxtail, Green","foxtail, green; 62 g ai/ha",15
same,"Plant response rating, Foxtail, Green","foxtail, green; 125 g ai/ha",40
same,"Plant response rating (scale 0 to 100), Deadnettle",deadnettle [1]; [9],0
same,"Plant response rating, Deadnettle",deadnettle [1]; 31 g ai/ha,20
same,"Plant response rating, Deadnettle",deadnettle [1]; 62 g ai/ha,80
same,"Plant response rating, Deadnettle",deadnettle [1]; 125 g ai/ha,100
same,"Plant response rating (scale 0 to 100), Lambsquarters",lambsquarters; [9],0
same,"Plant response rating, Lambsquarters",lambsquarters; 62 g ai/ha,65
same,"Plant response rating, Lambsquarters",lambsquarters; 125 g ai/ha,95
same,"Plant response rating (scale 0 to 100), Pigweed",pigweed [2]; [9],10
same,"Plant response rating, Pigweed",pigweed [2]; 62 g ai/ha,40
same,"Plant response rating, Pigweed",pigweed [2]; 125 g ai/ha,100
same,"Plant response rating (scale 0 to 100), Chamomile",chamomile; [9],5
same,"Plant response rating, Chamomile",chamomile; 31 g ai/ha,5
same,"Plant response rating, Chamomile",chamomile; 62 g ai/ha,10
same,"Plant response rating, Chamomile",chamomile; 125 g ai/ha,50
same,"Plant response rating (scale 0 to 100), Barley, Spring","barley, spring [3]; 16 g ai/ha, taken as preemergence, 0 = no effect, 100 = complete control",0
same,"Plant response rating, Barley, Spring","barley, spring [3]; 31 g ai/ha",0
same,"Plant response rating, Barley, Spring","barley, spring [3]; 62 g ai/ha",0
same,"Plant response rating, Barley, Spring","barley, spring [3]; 125 g ai/ha",0
same,"Plant response rating (scale 0 to 100), Barley, Winter","barley, winter [4]; [9]",0
same,"Plant response rating, Barley, Winter","barley, winter [4]; 31 g ai/ha",0
same,"Plant response rating, Barley, Winter","barley, winter [4]; 62 g ai/ha",0
same,"Plant response rating, Barley, Winter","barley, winter [4]; 125 g ai/ha",0
same,"Plant response rating (scale 0 to 100), Wheat, Spring","wheat, spring; [9]",0
same,"Plant response rating, Wheat, Spring","wheat, spring; 62 g ai/ha",0
same,"Plant response rating, Wheat, Spring","wheat, spring; 125 g ai/ha",5
same,"Plant response rating (scale 0 to 100), Wheat, Winter","wheat, winter; [9]",0
same,"Plant response rating, Wheat, Winter","wheat, winter; 62 g ai/ha",0
same,"Plant response rating, Wheat, Winter","wheat, winter; 125 g ai/ha",5
same,"Plant response rating (scale 0 to 100), Radish, Wild","radish, wild; [9]",15
same,"Plant response rating, Radish, Wild","radish, wild; 62 g ai/ha",75
same,"Plant response rating, Radish, Wild","radish, wild; 125 g ai/ha",100
same,"Plant response rating, Canarygrass","canarygrass; Postemergence, 16 g ai/ha",5
same,Canarygrass plant response rating,"canarygrass; Postemergence, 31 g ai/ha",15
same,Canarygrass plant response rating,"canarygrass; Postemergence, 125 g ai/ha",20
same,Canarygrass plant response rating,"canarygrass; postemergence, 62 g ai/ha",15
same,"Plant response rating, Field Violet","field violet; Postemergence, 16 g ai/ha",35
same,Field Violet plant response rating,"field violet; Postemergence, 31 g ai/ha",50
same,Field Violet plant response rating,"field violet; Postemergence, 125 g ai/ha",70
same,Field Violet plant response rating,"field violet; postemergence, 62 g ai/ha",50
same,"Plant response rating, Deadnettle","deadnettle [5]; Postemergence, 16 g ai/ha",10
same,Deadnettle plant response rating,"deadnettle [5]; Postemergence, 31 g ai/ha",35
same,Deadnettle plant response rating,"deadnettle [5]; Postemergence, 125 g ai/ha",45
same,Deadnettle plant response rating,"deadnettle [5]; postemergence, 62 g ai/ha",35
same,"Plant response rating, Pigweed","pigweed [6]; Postemergence, 16 g ai/ha",55
same,Pigweed plant response rating,"pigweed [6]; Postemergence, 31 g ai/ha",65
same,Pigweed plant response rating,"pigweed [6]; Postemergence, 125 g ai/ha",70
same,Pigweed plant response rating,"pigweed [6]; postemergence, 62 g ai/ha",65
same,"Barley, Spring plant response rating","barley, spring [7]; Postemergence, 16 g ai/ha",0
same,"Barley, Spring plant response rating","barley, spring [7]; Postemergence, 31 g ai/ha",10
same,"Barley, Spring plant response rating","barley, spring [7]; Postemergence, 125 g ai/ha",15
same,"Barley, Spring plant response rating","barley, spring [7]; postemergence, 62 g ai/ha",10
same,"Barley, Winter plant response rating","barley, winter [8]; Postemergence, 16 g ai/ha",0
same,"Barley, Winter plant response rating","barley, winter [8]; Postemergence, 31 g ai/ha",10
same,"Barley, Winter plant response rating","barley, winter [8]; Postemergence, 125 g ai/ha",20
same,"Barley, Winter plant response rating","barley, winter [8]; postemergence, 62 g ai/ha",10
same,"Plant response rating, Buckwheat, Wild","buckwheat, wild; Postemergence, 16 g ai/ha",30
same,"Buckwheat, Wild plant response rating","buckwheat, wild; Postemergence, 31 g ai/ha",55
same,"Buckwheat, Wild plant response rating","buckwheat, wild; Postemergence, 125 g ai/ha",65
same,"Buckwheat, Wild plant response rating","buckwheat, wild; postemergence, 62 g ai/ha",55
same,"Plant response rating, Mustard, Wild","mustard, wild; Postemergence, 16 g ai/ha",25
same,"Mustard, Wild plant response rating","mustard, wild; Postemergence, 31 g ai/ha",55
same,"Mustard, Wild plant response rating","mustard, wild; Postemergence, 125 g ai/ha",70
same,"Mustard, Wild plant response rating","mustard, wild; postemergence, 62 g ai/ha",55
same,"Plant response rating, Oat, Wild","oat, wild; Postemergence, 16 g ai/ha",5
same,"Oat, Wild plant response rating","oat, wild; Postemergence, 31 g ai/ha",15
same,"Oat, Wild plant response rating","oat, wild; Postemergence, 125 g ai/ha",20
same,"Oat, Wild plant response rating","oat, wild; postemergence, 62 g ai/ha",15
